Test results taken from patent US6677311B1, “Inducible HSV-TK in transformed cell populations” (priority 1988, dated 2004).

Tests used:
[1] = test system: rat fibroblast cell line #3B; assay: Cell growth assay, HSV1-TK expressing 3B cells; format: cell-based
From the text: To examine the effect on cellular DNA replication, the rat fibroblast cell line #3B (see Pfahl, et al. Proc. UCLA Symp. Conf. Steroid Hormone Action, ed. Ringold, G. (Liss, N.Y.), Vol. 75:161-168 (1987) that stably expresses the glucocorticoid inducible MTV-HSV1-TK gene, was used. Addition of Dex to these cells leads to a 50-fold increase in HSV1-TK activity. The effect of the drugs on the 3B cells was compared to the one obtained on the control rat 208 fibroblast cell line (see Quade, K. (1979) in Virology, 98:461-465 (1979), a cell line not expressing HSV1-TK). The experiments were performed by seeding cells at low density (3×10^4) in Dulbecco media containing 10% FCS. Cells were incubated with varying concentrations of drug placed in the media 12 hours after the cells were plated either in the presence or in the absence of 10^−7 M Dexamethasone. After a total period of 72 hours, viable cells were recognized by Trypan blue exclusion. Cell numbers were determined with a Neubauer Hemocytometer. The efficacy of the drugs was monitored as reduction in the total number of viable cells.

COS cells = assay: Inhibition of plasmid replication in cotransfected COS cells expressing HSV1-TK; format: cell-based, monkey; settings: 10 μM drug; for reduction of total plasmid copy number (pSV2CAT) relative to no drug treatment: COS cells cotransfected with pSV2CAT, pApS1 (MTV-HSV1-TK), pRShGR, Dex 10^-7 M, 36 h; for decrease of replication of PRShGR': same cotransfection, similar to pSV2CAT
Description: The possibility was tested that HSVI-TK expressed from a transfected plasmid could metabolize anti-herpetic nucleosides to substrates capable of being metabolized by a cellular DNA polymerase. In principle, the incorporation of these activated drugs should lead to a net decrease in cellular DNA replication. Accordingly, a plasmid capable of replicating in COS cells [monkey kidney cells which express T antigen (Tag); See Gluzman, Y. in Cell, 23:175-182 (1981)], namely pSV2CAT (See FIG. 1a; a plasmid that contains the Simian virus 40 promoter region linked to the chloramphenicol acetyltransferase (CAT) gene; See Gorman, et al. in Mol. Cell. Biol., 2:1044-1051(1982)) was cotransfected with a plasmid, pApSI (a plasmid that contains the mouse mammary tumor virus long terminal repeat (MTV-LTR) linked to the HSV1-TK gene; See Chandler, et al., in Cell, 33:489-499 (1983)), expressing HSV1-TK gene under the control of the glucocorticoid inducible promoter of the mouse mammary tumor virus (MTV) (see FIG. 1a). Here, the expression of TK is dependent on both the presence of glucocorticoids, such as the synthetic dexamethasone (Dex), and the glucocorticoid receptor which activate the MTV-promoter in the presence of Dex. For this reason, a human glucocorticoid receptor (hGR) expression vector, PRShGR' (a human glucocorticoid receptor (hGR) expression vector that contains the Rous sarcoma virus long terminal repeat (RSV-LTR) linked to the human glucocorticoid receptor; See Giguere, et al., in Cell, 46:645-652 (1986)), was also cotransfected to insure high levels of this transacting factor. PRShGR' itself contains the origin of replication of SV40 and therefore is able to replicate in COS cells.
Semi-confluent COS cells were cotransfected by the calcium phosphate technique (See Graham, F. L. and van der Eb, A. J., Virology, 52:456-467 (1973) with 1 μg of pSV2CAT, 5 μg of pApS1 and 1 μg of pRShGR' and analyzed 36 hours later. The effect of ACV or FIAU on the replication of pSV2CAT was monitored by the reduction in the number of molecules of this plasmid as compared to a similar experiment conducted in the absence of these drugs. The cells were grown in Dulbecco media containing 5% FCS. Before each experiment, Dex, at a concentration of 10^−7 M, was added. Where the nucleoside analogs were tested, either ACV or FIAU was added to the media at a concentration of 10 μM. When the cells were trypsinized and washed after 24 hours, and then replaced, the new media contained the same concentration of Dex and ACV or FIAU as before. 12 hours later the cells were harvested and plasmid DNA was recovered. The plasmids were recovered from the transfected cells by the method of Hirt (see J. Mol. Biol., 26:365-269 (1967)). […]

spleen and thymus = assay: FIAU cell killing in KHTK transgenic mice (miniosmotic pump); format: in vivo, mouse
Description: Furthermore, to test if the protein was biologically active, a TK assay [See Fyfe et al., J. Biol. Chem. 253:8721-8727 (1978)] was performed on extracts from these tissues. […] To evaluate the efficacy of the system in vivo, an experiment was performed in which transgenic and non-transgenic littermates were implanted subcutaneously with a miniosmotic pump (model 2002, Alzet, Alza Corp., Palo Alto, Calif.). Transgenic and nontransgenic littermates were then treated for one week with a 50 mg/ml solution of FIAU in PBS released by the Miniosmotic pump. FIAU was chosen because it was most efficient in blocking the DNA replication in vitro. The dose was calculated to obtain serum levels of the drug shown to be effective in cell culture. The animals were sacrificed one week after the pump was implanted. […] In the transgenic mouse, most organs were also normal with the dramatic exception of the spleen and thymus which were visually atrophied.

[2] = transgenic mouse, 50 mg/ml FIAU in PBS by miniosmotic pump, one week

## Nc1nc2c(ncn2COCCO)c(=O)[nH]1 [ACV, 9-[(2-hydroxyethoxy)methyl]guanine]
[1]; 3.0 μM ACV, 3B cells in the presence of Dex, 72 h
  cell death: 20%
[1]; 10 μM ACV, 3B cells in the presence of Dex
  cell death: 60%
[1]; 100 μM ACV
  toxicity independent of the presence or absence of Dex: non-specific toxicity
[1]; 100 μM ACV, 3B cells in the presence of Dex
  cell death: 98%
[1]; 0.1 to 1.0 μM, 72 h
  effect on number of viable cells: no effect
COS cells
  reduction of total plasmid copy number (pSV2CAT) relative to no drug treatment: 40%
  decrease of replication of PRShGR': 40%

## O=c1[nH]c(=O)n([C@H]2O[C@H](CO)[C@@H](O)[C@@H]2F)cc1I [FIAU, 1-(2-deoxy-2-fluoro-a-D-arabinofuranosil)-5-iodouracil]
Spleen and thymus; nontransgenic littermate, one week of FIAU treatment
  autopsy findings in control mouse: no apparent toxic effects
Spleen and thymus; [2]
  reduction of the cell number in the spleen: 57%
  reduction of the cell number in the thymus: 83%
[1]; 0.1 μM FIAU
  reduction of viability: more than 60%
[1]; 3.0 μM FIAU, in the absence of severe non-specific toxicity
  cell death: 98%
COS cells
  reduction of total plasmid copy number (pSV2CAT) relative to no drug treatment: 70%
  decrease of replication of PRShGR': 70%
